Reference: ChEMBL document CHEMBL1144513, “Synthesis and SAR study of novel 7-(pyridinium-3-yl)-carbonyl imidazo[5,1-b]thiazol-2-yl carbapenems” (2007)
Converted amounts (≈) assume the structure as drawn.

Experiments:
Format in all cases: functional
Staphylococcus aureus [1] = experiment: Antibacterial activity against Staphylococcus aureus 209P JC1 by agar dilution method
Haemophilus influenzae = experiment: Antibacterial activity against beta-lactamase-negative ampicillin-resistant Haemophilus influenzae 870 by agar dilution method
Staphylococcus aureus [2] = experiment: Antibacterial activity against carbapenem and methicillin-resistant Staphylococcus aureus M126HR by agar dilution method
Escherichia coli = experiment: Antibacterial activity against Escherichia coli NIHJ JC2 by agar dilution method
Klebsiella pneumoniae = experiment: Antibacterial activity against Klebsiella pneumoniae GN69 by agar dilution method
Staphylococcus aureus [3] = experiment: Antibacterial activity against methicillin-resistant Staphylococcus aureus M126 by agar dilution method
Moraxella catarrhalis = experiment: Antibacterial activity against Moraxella catarrhalis W-0500 by agar dilution method
Streptococcus pneumoniae = experiment: Antibacterial activity against penicillin-resistant Streptococcus pneumoniae KK133 by agar dilution method

SMILES: COCc1nc(C(=O)c2ccc[n+](CC(N)=O)c2)c2sc(C3=C(C(=O)[O-])N4C(=O)[C@H]([C@@H](C)O)[C@H]4[C@H]3C)cn12
- MIC (Staphylococcus aureus [1]): 0.031 µg/mL (≈ 0.0575 µM)
- MIC (Haemophilus influenzae): 0.063 µg/mL (≈ 0.117 µM)
- MIC (Staphylococcus aureus [2]): 4 µg/mL (≈ 7.41 µM)
- MIC (Escherichia coli): 8 µg/mL (≈ 14.8 µM)
- MIC (Klebsiella pneumoniae): 4 µg/mL (≈ 7.41 µM)
- MIC (Staphylococcus aureus [3]): 2 µg/mL (≈ 3.71 µM)
- MIC (Moraxella catarrhalis): 0.031 µg/mL (≈ 0.0575 µM)
- MIC (Streptococcus pneumoniae): 0.063 µg/mL (≈ 0.117 µM)

SMILES: C[C@@H](O)[C@H]1C(=O)N2C(C(=O)O)=C(c3cn4cnc(C(=O)C5CCNCC5)c4s3)[C@H](C)[C@H]12
- MIC (Staphylococcus aureus [1]): 0.008 µg/mL (≈ 0.018 µM)
- MIC (Haemophilus influenzae): 0.063 µg/mL (≈ 0.142 µM)
- MIC (Staphylococcus aureus [2]): 4 µg/mL (≈ 9 µM)
- MIC (Escherichia coli): 0.063 µg/mL (≈ 0.142 µM)
- MIC (Klebsiella pneumoniae): 0.125 µg/mL (≈ 0.281 µM)
- MIC (Staphylococcus aureus [3]): 1 µg/mL (≈ 2.25 µM)
- MIC (Moraxella catarrhalis): 0.031 µg/mL (≈ 0.0697 µM)
- MIC (Streptococcus pneumoniae): 0.063 µg/mL (≈ 0.142 µM)

SMILES: C[C@@H](O)[C@H]1C(=O)N2C(C(=O)[O-])=C(c3cn4cnc(C(=O)c5ccc[n+](CCN(C)C)c5)c4s3)[C@H](C)[C@H]12
- MIC (Staphylococcus aureus [1]): ≤ 0.008 µg/mL
- MIC (Haemophilus influenzae): 0.063 µg/mL (≈ 0.124 µM)
- MIC (Staphylococcus aureus [2]): 4 µg/mL (≈ 7.85 µM)
- MIC (Escherichia coli): 0.125 µg/mL (≈ 0.245 µM)
- MIC (Klebsiella pneumoniae): 0.25 µg/mL (≈ 0.491 µM)
- MIC (Staphylococcus aureus [3]): 1 µg/mL (≈ 1.96 µM)
- MIC (Moraxella catarrhalis): 0.031 µg/mL (≈ 0.0608 µM)
- MIC (Streptococcus pneumoniae): 0.031 µg/mL (≈ 0.0608 µM)

SMILES: C[C@@H](O)[C@H]1C(=O)N2C(C(=O)O)=C(c3cn4cnc(C(=O)c5ccncc5)c4s3)[C@H](C)[C@H]12
- MIC (Staphylococcus aureus [1]): ≤ 0.008 µg/mL
- MIC (Haemophilus influenzae): 0.031 µg/mL (≈ 0.0707 µM)
- MIC (Staphylococcus aureus [2]): 4 µg/mL (≈ 9.12 µM)
- MIC (Escherichia coli): 2 µg/mL (≈ 4.56 µM)
- MIC (Klebsiella pneumoniae): 2 µg/mL (≈ 4.56 µM)
- MIC (Staphylococcus aureus [3]): 0.063 µg/mL (≈ 0.144 µM)
- MIC (Moraxella catarrhalis): 0.031 µg/mL (≈ 0.0707 µM)
- MIC (Streptococcus pneumoniae): 0.031 µg/mL (≈ 0.0707 µM)

SMILES: C[C@@H](O)[C@H]1C(=O)N2C(C(=O)[O-])=C(c3cn4c(Cl)nc(C(=O)c5ccc[n+](CC(N)=O)c5)c4s3)[C@H](C)[C@H]12
- MIC (Staphylococcus aureus [1]): 0.008 µg/mL (≈ 0.0151 µM)
- MIC (Haemophilus influenzae): 0.063 µg/mL (≈ 0.119 µM)
- MIC (Staphylococcus aureus [2]): 2 µg/mL (≈ 3.77 µM)
- MIC (Escherichia coli): 1 µg/mL (≈ 1.89 µM)
- MIC (Klebsiella pneumoniae): 2 µg/mL (≈ 3.77 µM)
- MIC (Staphylococcus aureus [3]): 0.5 µg/mL (≈ 0.943 µM)
- MIC (Moraxella catarrhalis): 0.016 µg/mL (≈ 0.0302 µM)
- MIC (Streptococcus pneumoniae): 0.031 µg/mL (≈ 0.0585 µM)

SMILES: CN[C@H](CC(C)C)C(=O)N[C@H]1C(=O)N[C@@H](CC(N)=O)C(=O)N[C@H]2C(=O)N[C@H]3C(=O)N[C@H](C(=O)N[C@H](C(=O)O)c4cc(O)cc(O)c4-c4cc3ccc4O)[C@H](O)c3ccc(c(Cl)c3)Oc3cc2cc(c3O[C@@H]2O[C@H](CO)[C@@H](O)[C@H](O)[C@H]2O[C@H]2C[C@](C)(N)[C@H](O)[C@H](C)O2)Oc2ccc(cc2Cl)[C@H]1O [VANCOMYCIN]
- MIC (Haemophilus influenzae): > 128 µg/mL
- MIC (Escherichia coli): > 128 µg/mL
- MIC (Klebsiella pneumoniae): > 128 µg/mL
- MIC (Moraxella catarrhalis): 64 µg/mL (≈ 44.2 µM)
- MIC (Streptococcus pneumoniae): 0.5 µg/mL (≈ 0.345 µM)

SMILES: C[C@@H](O)[C@H]1C(=O)N2C(C(=O)[O-])=C(c3cn4cnc(C(=O)c5ccc[n+](CCS(C)(=O)=O)c5)c4s3)[C@H](C)[C@H]12
- MIC (Staphylococcus aureus [1]): ≤ 0.008 µg/mL
- MIC (Haemophilus influenzae): 0.063 µg/mL (≈ 0.116 µM)
- MIC (Staphylococcus aureus [2]): 4 µg/mL (≈ 7.34 µM)
- MIC (Escherichia coli): 0.5 µg/mL (≈ 0.918 µM)
- MIC (Klebsiella pneumoniae): 0.5 µg/mL (≈ 0.918 µM)
- MIC (Staphylococcus aureus [3]): 1 µg/mL (≈ 1.84 µM)
- MIC (Moraxella catarrhalis): 0.016 µg/mL (≈ 0.0294 µM)
- MIC (Streptococcus pneumoniae): 0.031 µg/mL (≈ 0.0569 µM)

SMILES: C[C@@H](O)[C@H]1C(=O)N2C(C(=O)O)=C(c3cn4cnc(C(=O)[C@@H]5CCCN5)c4s3)[C@H](C)[C@H]12
- MIC (Staphylococcus aureus [1]): ≤ 0.008 µg/mL
- MIC (Haemophilus influenzae): 0.125 µg/mL (≈ 0.29 µM)
- MIC (Staphylococcus aureus [2]): 4 µg/mL (≈ 9.29 µM)
- MIC (Escherichia coli): 0.125 µg/mL (≈ 0.29 µM)
- MIC (Klebsiella pneumoniae): 0.125 µg/mL (≈ 0.29 µM)
- MIC (Staphylococcus aureus [3]): 1 µg/mL (≈ 2.32 µM)
- MIC (Moraxella catarrhalis): 0.031 µg/mL (≈ 0.072 µM)
- MIC (Streptococcus pneumoniae): 0.063 µg/mL (≈ 0.146 µM)

SMILES: C[C@@H](O)[C@H]1C(=O)N2C(C(=O)[O-])=C(c3cn4cnc(C(=O)c5ccc[n+](CC(N)=O)c5)c4s3)[C@H](C)[C@H]12
- MIC (Staphylococcus aureus [1]): ≤ 0.008 µg/mL
- MIC (Haemophilus influenzae): 0.063 µg/mL (≈ 0.127 µM)
- MIC (Staphylococcus aureus [2]): 2 µg/mL (≈ 4.04 µM)
- MIC (Escherichia coli): 0.031 µg/mL (≈ 0.0626 µM)
- MIC (Klebsiella pneumoniae): 0.063 µg/mL (≈ 0.127 µM)
- MIC (Staphylococcus aureus [3]): 0.5 µg/mL (≈ 1.01 µM)
- MIC (Moraxella catarrhalis): 0.016 µg/mL (≈ 0.0323 µM)
- MIC (Streptococcus pneumoniae): 0.031 µg/mL (≈ 0.0626 µM)

SMILES: CSc1c2sc(C3=C(C(=O)[O-])N4C(=O)[C@H]([C@@H](C)O)[C@H]4[C@H]3C)cn2c[n+]1CC(N)=O
- MIC (Staphylococcus aureus [1]): 0.008 µg/mL (≈ 0.0183 µM)
- MIC (Haemophilus influenzae): 0.5 µg/mL (≈ 1.15 µM)
- MIC (Staphylococcus aureus [2]): 4 µg/mL (≈ 9.16 µM)
- MIC (Escherichia coli): 0.016 µg/mL (≈ 0.0367 µM)
- MIC (Klebsiella pneumoniae): 0.031 µg/mL (≈ 0.071 µM)
- MIC (Staphylococcus aureus [3]): 1 µg/mL (≈ 2.29 µM)
- MIC (Moraxella catarrhalis): 0.031 µg/mL (≈ 0.071 µM)
- MIC (Streptococcus pneumoniae): 0.031 µg/mL (≈ 0.071 µM)

SMILES: C[C@@H](O)[C@H]1C(=O)N2C(C(=O)[O-])=C(c3cn4cnc(C(=O)c5ccc[n+](CCNS(N)(=O)=O)c5)c4s3)[C@H](C)[C@H]12
- MIC (Staphylococcus aureus [1]): ≤ 0.008 µg/mL
- MIC (Haemophilus influenzae): 0.063 µg/mL (≈ 0.112 µM)
- MIC (Staphylococcus aureus [2]): 2 µg/mL (≈ 3.57 µM)
- MIC (Escherichia coli): 0.031 µg/mL (≈ 0.0553 µM)
- MIC (Klebsiella pneumoniae): 0.063 µg/mL (≈ 0.112 µM)
- MIC (Staphylococcus aureus [3]): 1 µg/mL (≈ 1.78 µM)
- MIC (Moraxella catarrhalis): 0.016 µg/mL (≈ 0.0285 µM)
- MIC (Streptococcus pneumoniae): 0.031 µg/mL (≈ 0.0553 µM)

SMILES: C[C@@H](O)[C@H]1C(=O)N2C(C(=O)[O-])=C(c3cn4cnc(C(=O)c5ccc[n+](CC(=O)C(F)(F)F)c5)c4s3)[C@H](C)[C@H]12
- MIC (Staphylococcus aureus [1]): 0.016 µg/mL (≈ 0.0292 µM)
- MIC (Haemophilus influenzae): 0.063 µg/mL (≈ 0.115 µM)
- MIC (Staphylococcus aureus [2]): 4 µg/mL (≈ 7.29 µM)
- MIC (Escherichia coli): 0.125 µg/mL (≈ 0.228 µM)
- MIC (Klebsiella pneumoniae): 0.25 µg/mL (≈ 0.456 µM)
- MIC (Staphylococcus aureus [3]): 1 µg/mL (≈ 1.82 µM)
- MIC (Moraxella catarrhalis): 0.031 µg/mL (≈ 0.0565 µM)
- MIC (Streptococcus pneumoniae): 0.063 µg/mL (≈ 0.115 µM)

SMILES: CSc1nc(C(=O)c2ccc[n+](CC(N)=O)c2)c2sc(C3=C(C(=O)[O-])N4C(=O)[C@H]([C@@H](C)O)[C@H]4[C@H]3C)cn12
- MIC (Staphylococcus aureus [1]): 0.008 µg/mL (≈ 0.0148 µM)
- MIC (Haemophilus influenzae): 0.031 µg/mL (≈ 0.0572 µM)
- MIC (Staphylococcus aureus [2]): 1 µg/mL (≈ 1.85 µM)
- MIC (Escherichia coli): 4 µg/mL (≈ 7.39 µM)
- MIC (Klebsiella pneumoniae): 4 µg/mL (≈ 7.39 µM)
- MIC (Staphylococcus aureus [3]): 0.5 µg/mL (≈ 0.923 µM)
- MIC (Moraxella catarrhalis): 0.016 µg/mL (≈ 0.0295 µM)
- MIC (Streptococcus pneumoniae): 0.016 µg/mL (≈ 0.0295 µM)

SMILES: C[C@@H](O)[C@H]1C(=O)N2C(C(=O)[O-])=C(c3cn4c(C5CC5)nc(C(=O)c5ccc[n+](CC(N)=O)c5)c4s3)[C@H](C)[C@H]12
- MIC (Staphylococcus aureus [1]): 0.016 µg/mL (≈ 0.0299 µM)
- MIC (Haemophilus influenzae): 0.031 µg/mL (≈ 0.0579 µM)
- MIC (Staphylococcus aureus [2]): 2 µg/mL (≈ 3.73 µM)
- MIC (Escherichia coli): 4 µg/mL (≈ 7.47 µM)
- MIC (Klebsiella pneumoniae): 4 µg/mL (≈ 7.47 µM)
- MIC (Staphylococcus aureus [3]): 0.5 µg/mL (≈ 0.934 µM)
- MIC (Moraxella catarrhalis): 0.016 µg/mL (≈ 0.0299 µM)
- MIC (Streptococcus pneumoniae): 0.031 µg/mL (≈ 0.0579 µM)
